{
  "source": "patent EP1803441A1",
  "about": "(Teva Pharmaceutical Industries Ltd, priority 2005, dated 2007)",
  "origin": "cited, not measured here",
  "key": {"[1]": {"conditions": "orally administered tablets"}, "[2]": {"conditions": "oral administration"}},
  "data": [
    {"smiles": "CC(C)OC(=O)C(C)(C)Oc1ccc(C(=O)c2ccc(Cl)cc2)cc1", "note": "[fenofibrate, 2-[4-(4-chlorobenzoyl)phenoxy]-2-methyl-propanoic acid, 1-methylethyl ester]", "values": [
      {"measurement": "increase of the extent of absorption when tablets are taken with food", "setting": "[1]", "value": "approximately 35%"},
      {"measurement": "part of a single dose excreted in the feces", "setting": "[2]", "value": 25, "unit": "%"}
    ]}
  ]
}
